What was measured:
[1] = Saccharide concentration and osmotic pressure of hypertonic solutions (measured values); format: physicochemical
Procedure: When the hypertonic solution having an osmotic pressure of 370 mOsm/kg or higher is prepared by adding a saccharide to the culture medium, the method of the present invention is characterized in that the hypertonic solution contains the saccharide in 0.1-1 M (mol/L), preferably 0.1-0.6 M (mol/L). The relation between the concentration of saccharide (mol/L) and the osmotic pressure (mOsm/kg) can be approximated by a substantially straight line; a hypertonic solution containing 0.1 M saccharide corresponds to one having an osmotic pressure of approximately 370 mOsm/kg and a hypertonic solution containing 1 M saccharide corresponds to one having an osmotic pressure of approximately 1300-1600 mOsm/kg.
Hypertonic solutions were prepared using various saccharides and the relation between the saccharide concentration and the osmotic pressure is shown in the following table for typical saccharides.

[2] = test system: human embryonic stem cell-derived embryoid bodies; assay: Cell death inducing effect on residual stem cells in human embryonic stem cell-derived embryoid bodies and enrichment of cardiomyocytes; format: cell-based; conditions: 0.45 M or 0.6 M
Procedure: After passaging, human embryonic stem cells were subjected to suspension culture in a culture medium [α-MEM (minimum essential medium) (SIGMA), supplemented with 10% FBS (EQUITEC BIO), 100 units/ml penicillin, and 50 μg/ml streptomycin (GIBCO)] to induce formation of embryoid bodies. At 14-18 days after the start of differentiation (the start of suspension culture), autonomously pulsating cells started to differentiate, which was confirmed in a separate step that they were cardiomyocytes.
The embryoid bodies still maintained an autonomously pulsating ability after the passage of 3 months from the start of differentiation. They were partially treated with 0.1% collagenase (Wortington) and 0.1% trypsin (DIFCO) to be dispersed as fine cell masses. The cell masses were divided into two groups; one group was treated with 0.45 M mannitol (approximately equivalent to 720 mOsm/kg) for 2 hours, and the other group (control) was not treated with mannitol but treated with the same amount of a solution having the physiological osmotic pressure, Ads buffer (116.4 mM NaCl, 5.4 mM KCl, 5.6 mM dextrose, 10.9 mM NaH2PO4, 405.7 μM MgSO4, 20 mM Hepes, pH 7.3) for 2 hours. After the treatment, both cell groups were subjected to adherent culture for 3 days in a DMEM solution supplemented with 10% fetal calf serum.
The mannitol-treated cells and the control cells were analyzed in accordance with the experimental procedure of Example 1 using a mouse anti-Oct-3/4 monoclonal antibody (No. 084720 of BD Transduction Laboratories) and a goat anti-Nkx 2.5 antibody (No. N-19 of Santacruz) as primary antibodies, for the expression of the Oct-3/4 protein which was both a marker of embryonic stem cells and an intranuclear transcription factor, and for the expression of the Nkx 2.5 protein which was both a cardiomyocyte marker and an intranuclear transcription factor, respectively. The results for the control group, one of the two divided samples, are shown in FIG. 10 and the results for the test group subjected to 2-hr treatment with mannitol are shown in FIG. 11. The upper panels of FIG. 10 show the results of cardiomyocytes and the lower panels show the results of embryonic stem cells.
The embryoid bodies still maintained an autonomously pulsating ability after the passage of 3 months from the start of differentiation. They were partially treated with 0.1% collagenase (Wortington) and 0.1% trypsin (DIFCO) to be dispersed as fine cell masses. The cell masses were divided into two groups; one group was treated with saccharides (sugar alcohols: sorbitol, xylitol, and glycerol; sugars: sucrose and glucose; betaines: trimethylglycine) for 12 hours in an amount of 0.45 M (approximately equivalent to 700-780 mOsm/kg) or 0.6 M (approximately equivalent to 850-1000 mOsm/kg), and the other group (control) was not treated with those saccharides but treated with the same amount of a solution having the physiological osmotic pressure, Ads buffer (116.4 mM NaCl, 5.4 mM KCl, 5.6 mM dextrose, 10.9 mM NaH2PO4, 405.7 μM MgSO4, 20 mM Hepes, pH 7.3) for 2 hours. After the treatment, both cell groups were cultured for 12 hours in a DMEM solution supplemented with 10% fetal calf serum.
Samples of differentiated cells derived from human embryonic stem cells, as treated with 0.45 M glycerol (approximately equivalent to 710 mOsm/kg) or 0.6 M glycerol (approximately equivalent to 870 mOsm/kg), were examined for their morphology under the culture conditions. […] The cell death inducing effect was noticeable when the cells were exposed to glycerol for 10 hours and longer (FIG. 14).

[3] = test system: human embryonic stem cells; assay: Cell death inducing effect on human embryonic stem cells (TMRM FACS, 5-day adherent culture); format: cell-based; conditions: 0.45 M, 2 hours
Procedure: The human embryonic stem cells were obtained from Stem Cell Research Center, Institute for Frontier Medical Sciences, Kyoto University (ES cell center sponsored by the National Bio-Resource Project) (Suemori, H et al., Biochem. Biophys. Res. Commun., Vol. 345, 2006, pp. 926-932). The cells were cultured basically in accordance with the method described in this document. To be more specific, the human embryonic stem cells were cultured to maintain their undifferentiated state using mouse embryonic fibroblasts (MEF) that had been inactivated for growth by treatment with mitomycin C. The culture medium of F12/DMEM (1:1) (SIGMA; Product No. D6421), supplemented with 20% KO-SERUM (GIBCO), 1.6 mM L-glutamine, 0.1 mM non-essential amino acids (MEM), 0.1 mM β-mercaptoethanol (2-ME; Sigma), 100 IU/ml penicillin, 100 μg/ml streptomycin sulfate, and recombinant human basic fibroblast growth factor (bFGF; Reprotech) was used. Upon passaging, the cells were treated with 0.1% type III collagenase (Wortington) at 37° C. for 10 minutes to separate embryonic stem cell colonies. After passaging, the cells were dispersed with each other using TE (0.25% trypsin (GIBCO) and 1 mM EDTA) and in accordance with a published document (Watanabe, K. et al., Nat. Biotechnol., 2007, 25: 681-686, Epub 2007 May 27), 10 μM of a ROCK inhibitor (Y27632) was added to suppress cell death. At the same time, the mitochondria in the live cells were stained with 50 nM TMRM. Part of the stained cells were treated with an α-MEM culture medium containing 0.45 M mannitol (approximately equivalent to 720 mOsm/kg) for 2, 3 or 4 hours and three samples were prepared from these cells; the rest of the stained cells were treated with a mannitol-free α-MEM culture medium for 2 hours and a sample was prepared from these cells as a control. In the control, cells were aggregated with each other to make masses, so before FACS analysis, the treated groups and the control were given another treatment with trypsin and EDTA to disperse the cells. The cells treated with mannitol for 2, 3 or 4 hours and the control cells were analyzed by FACS for the level of mitochondrial membrane potential on the basis of the fluorescent intensity of TMRM to check the state of survival of the stem cells; the results are shown in FIG. 7. […] In addition, the TMRM-stained cells were photographed, both for the case of 2-h treatment with mannitol and for the control (FIG. 8)). […] Changes in the mitochondrial membrane potential were observed using the experimental technique of Example 5, provided that the human embryonic stem cells were treated not with mannitol, but with 0.45 M of various other saccharides (sugar alcohols: sorbitol and xylitol; sugars: sucrose and glucose; betaines: trimethylglycine) (approximately equivalent to 750-780 mOsm/kg) for 2 hours.

[4] = saccharide concentration 0.45 M in culture medium
[5] = saccharide concentration 0.6 M in culture medium
[6] = saccharide concentration 0.9 M in culture medium

Row | SMILES | Osmotic pressure [1, 4] [mOsm/kg] | Osmotic pressure ([1]; saccharide concentration 0.45 M in culture medium, listed as Glycerol) [mOsm/kg] | Osmotic pressure [1, 5] [mOsm/kg] | Osmotic pressure ([1]; saccharide concentration 0.6 M in culture medium, listed as Glycerol) [mOsm/kg] | Osmotic pressure [1, 6] [mOsm/kg] | Exposure time at which the cell death inducing effect was noticeable [2] [h] | State of differentiated cells other than cardiomyocytes (morphology) [2] | Mitochondrial membrane potential (TMRM fluorescence, FACS) [3]
1 | OC[C@H]1O[C@@](CO)(O[C@H]2O[C@H](CO)[C@@H](O)[C@H](O)[C@H]2O)[C@@H](O)[C@@H]1O [sucrose] | 779 | – | 988 | – | 1496 | – | – | all of the cells treated with the above-mentioned saccharides for 2 hours had lost membrane potential
2 | C[N+](C)(C)CC(=O)[O-] [trimethylglycine] | 763 | – | 965 | – | 1421 | – | – | all of the cells treated with the above-mentioned saccharides for 2 hours had lost membrane potential
3 | OC[C@@H](O)[C@@H](O)[C@H](O)[C@@H](O)CO [sorbitol] | 748 | – | 922 | – | 1289 | – | – | all of the cells treated with the above-mentioned saccharides for 2 hours had lost membrane potential

Continued, in another order:

Row | Osmotic pressure [1, 4] [mOsm/kg] | Osmotic pressure ([1]; saccharide concentration 0.45 M in culture medium, listed as Glycerol) [mOsm/kg] | Osmotic pressure [1, 5] [mOsm/kg] | Osmotic pressure ([1]; saccharide concentration 0.6 M in culture medium, listed as Glycerol) [mOsm/kg] | Osmotic pressure [1, 6] [mOsm/kg] | SMILES | Exposure time at which the cell death inducing effect was noticeable [2] [h] | State of differentiated cells other than cardiomyocytes (morphology) [2] | Mitochondrial membrane potential (TMRM fluorescence, FACS) [3]
4 | ~710 | 706 | ~870 | 869 | 1232 | OCC(O)CO [glycerol] | ≥ 10 | almost all of the differentiated cells other than cardiomyocytes had been dead | –
5 | 779 | – | 940 | – | 1230 | OC[C@@H](O)[C@H](O)[C@@H](O)CO [xylitol] | – | – | all of the cells treated with the above-mentioned saccharides for 2 hours had lost membrane potential

From US8735152B2, “Methods for inducing cell death in pluripotent stem cells and differentiated cells other than cardiac myocytes” (Daiichi Sankyo Company, Limited, priority 2009, dated 2014)
